Measurements reported in patent US10941121B2 (AZIENDA OSPEDALIERA UNIVERSITARIA SENESE, priority 2015, dated 2021).
pEC50, pIC50: −log10 of the molar value. Read-outs that look alike come from different tables or passages of the source.

Tests used:
[1] = system: human liver microsome (HLM); experiment: Microsomal Stability Assay; conditions: human liver microsomes, 37 °C, 60 min, compound 50 μM; percentage of not metabolized compound
NS3 (DENV) = NS3 (DENV) (Orthoflavivirus denguei (Dengue virus), UniProt P29990); experiment: Selectivity of 20a: NS3 (DENV); type: biochemical
HIV (PBMC) = experiment: HIV infectious cell culture system in PBMC, HIV-1 RNA in supernatant; conditions: Human immunodeficiency virus 1, PBMC, 72 h, read-out: EC50 HIV (PBMC) 72 h
DDX3 Helicase = DDX3 Helicase (Homo sapiens, UniProt O00571); conditions: read-out: ID50 (μM) against DDX3 Helicase; n.a. = compound not active
NS3 (HCV) = NS3 (HCV) (Hepacivirus hominis (Hepatitis C virus), UniProt P26663); experiment: Selectivity of 20a: NS3 (HCV); type: biochemical
DDX1 = target: T1, DDX1 (Homo sapiens, UniProt Q92499); experiment: Selectivity of 20a: DDX1; type: biochemical; conditions: >200 = less than 20% of inhibition at 200 μM, the highest concentration tested
T1 sequence (Q92499 1-740): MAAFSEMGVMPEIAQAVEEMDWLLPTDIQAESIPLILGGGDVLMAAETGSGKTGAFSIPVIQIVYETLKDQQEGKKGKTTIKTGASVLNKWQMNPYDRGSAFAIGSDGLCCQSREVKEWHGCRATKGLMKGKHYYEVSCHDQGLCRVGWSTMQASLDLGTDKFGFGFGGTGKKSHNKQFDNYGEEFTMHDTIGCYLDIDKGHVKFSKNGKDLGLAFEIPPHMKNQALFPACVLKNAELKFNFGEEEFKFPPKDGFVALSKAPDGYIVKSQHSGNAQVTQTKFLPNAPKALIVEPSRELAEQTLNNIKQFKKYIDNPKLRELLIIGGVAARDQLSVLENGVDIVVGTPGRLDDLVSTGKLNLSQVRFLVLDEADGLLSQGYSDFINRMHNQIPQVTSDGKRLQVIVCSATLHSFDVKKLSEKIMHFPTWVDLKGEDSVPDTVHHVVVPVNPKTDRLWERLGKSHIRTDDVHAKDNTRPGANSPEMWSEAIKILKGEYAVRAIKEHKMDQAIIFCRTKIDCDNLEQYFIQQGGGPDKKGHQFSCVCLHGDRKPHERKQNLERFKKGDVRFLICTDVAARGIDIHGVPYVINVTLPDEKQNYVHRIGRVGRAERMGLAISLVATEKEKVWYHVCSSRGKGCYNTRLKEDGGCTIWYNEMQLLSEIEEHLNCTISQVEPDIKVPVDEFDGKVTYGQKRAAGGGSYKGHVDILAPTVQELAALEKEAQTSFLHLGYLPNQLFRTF

Water Solubility Assay = type: physicochemical; conditions: thermodynamic from solid
[2] = Cytotoxicity, MTT method in LUNET cells; type: cell-based; conditions: human; MMT method in LUNET cells; read-out: CC50 (μM) non-infected cells
Protocol: Toxicity (CC50) was analysed in the Lunet/HuH7 cells by the addition of 10 μL of MTT (3-(4,5-dimethylthiazol-2-yl)-2,5-diphenyltetrazolium bromide) per well. After 4 h of incubation at 37° C. in a humidified atmosphere with 5% CO2, the amount of formazan produced was quantified spectrophotometrically at 550/620 nm (C. Pannecouque et al, Nature protocol 2008; 3 (3): 427-434). […] These assays were done in duplicate.

[3] = system: HIV-1 strains carrying resistance mutations; experiment: microbe, parasite or virus in culture; type: cell-based; conditions: for IC50: Human immunodeficiency virus 1, TZM-bl
ATPase DDX3 = target: T2, ATPase DDX3 (Homo sapiens, UniProt O00571); experiment: Selectivity of 20a: ATPase DDX3; type: biochemical; conditions: >200 = less than 20% of inhibition at 200 μM, the highest concentration tested
T2 construct: made in house; host or cells: E. coli

[4] = system: HIV-1 wild-type reference strain NL4-3; experiment: HIV-1 phenotypic assay, MT-2 cells then TZM-bl cells, luciferase; type: cell-based; conditions: Human immunodeficiency virus 1, NL43
JEV strain (NJ2008) = experiment: JEV infectious cell culture system, plaque formation assay in BHK-21 cells; conditions: Japanese encephalitis virus, BHK-21, read-out: JEV EC50
[5] = Cytotoxicity in Huh7 cells, nuclei counts; conditions: human
[6] = system: HCV Jc1 (genotype 2a virus); experiment: HCV infectious cell culture system, NS5A immunostaining; conditions: Hepatitis C virus, Huh7.5, read-out: HCV EC50

Chain of NS3 (DENV) (P29990 1476-2093): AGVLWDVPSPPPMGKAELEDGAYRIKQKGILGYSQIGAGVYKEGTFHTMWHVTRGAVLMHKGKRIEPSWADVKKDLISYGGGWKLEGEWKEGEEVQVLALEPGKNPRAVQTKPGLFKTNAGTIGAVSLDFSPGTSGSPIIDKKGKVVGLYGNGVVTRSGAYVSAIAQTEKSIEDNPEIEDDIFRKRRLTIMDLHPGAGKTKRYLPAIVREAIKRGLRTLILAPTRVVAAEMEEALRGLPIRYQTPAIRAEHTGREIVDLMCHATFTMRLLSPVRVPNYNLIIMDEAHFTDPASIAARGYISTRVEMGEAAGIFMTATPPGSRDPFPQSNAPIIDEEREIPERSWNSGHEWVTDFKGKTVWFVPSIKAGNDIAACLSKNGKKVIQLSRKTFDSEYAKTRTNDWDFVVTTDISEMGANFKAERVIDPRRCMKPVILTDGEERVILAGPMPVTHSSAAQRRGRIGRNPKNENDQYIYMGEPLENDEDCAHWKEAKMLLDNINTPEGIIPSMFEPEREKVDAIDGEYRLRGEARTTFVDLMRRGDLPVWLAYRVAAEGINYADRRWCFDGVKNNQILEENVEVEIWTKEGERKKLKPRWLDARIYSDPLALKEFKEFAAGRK
Chain of DDX3 Helicase (O00571 whole entry): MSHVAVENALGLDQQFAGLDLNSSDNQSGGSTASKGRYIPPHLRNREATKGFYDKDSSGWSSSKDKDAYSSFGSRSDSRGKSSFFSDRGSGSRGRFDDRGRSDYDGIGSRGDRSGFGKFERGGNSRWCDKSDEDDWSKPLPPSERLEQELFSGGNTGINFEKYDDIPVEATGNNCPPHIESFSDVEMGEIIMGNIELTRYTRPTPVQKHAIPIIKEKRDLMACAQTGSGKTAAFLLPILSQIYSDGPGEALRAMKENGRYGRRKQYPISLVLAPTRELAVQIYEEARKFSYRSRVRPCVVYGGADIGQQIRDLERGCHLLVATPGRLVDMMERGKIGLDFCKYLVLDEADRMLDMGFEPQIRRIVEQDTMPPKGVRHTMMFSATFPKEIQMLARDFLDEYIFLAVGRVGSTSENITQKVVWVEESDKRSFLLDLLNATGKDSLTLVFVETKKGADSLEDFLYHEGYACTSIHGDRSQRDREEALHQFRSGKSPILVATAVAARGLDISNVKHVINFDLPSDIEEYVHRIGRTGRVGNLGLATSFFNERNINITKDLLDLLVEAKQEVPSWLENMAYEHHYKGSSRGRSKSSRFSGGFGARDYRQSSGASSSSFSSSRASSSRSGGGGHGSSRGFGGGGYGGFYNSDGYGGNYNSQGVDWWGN
T2 sequence (O00571 whole entry): as above
Chain of NS3 (HCV) (P26663 1027-1657): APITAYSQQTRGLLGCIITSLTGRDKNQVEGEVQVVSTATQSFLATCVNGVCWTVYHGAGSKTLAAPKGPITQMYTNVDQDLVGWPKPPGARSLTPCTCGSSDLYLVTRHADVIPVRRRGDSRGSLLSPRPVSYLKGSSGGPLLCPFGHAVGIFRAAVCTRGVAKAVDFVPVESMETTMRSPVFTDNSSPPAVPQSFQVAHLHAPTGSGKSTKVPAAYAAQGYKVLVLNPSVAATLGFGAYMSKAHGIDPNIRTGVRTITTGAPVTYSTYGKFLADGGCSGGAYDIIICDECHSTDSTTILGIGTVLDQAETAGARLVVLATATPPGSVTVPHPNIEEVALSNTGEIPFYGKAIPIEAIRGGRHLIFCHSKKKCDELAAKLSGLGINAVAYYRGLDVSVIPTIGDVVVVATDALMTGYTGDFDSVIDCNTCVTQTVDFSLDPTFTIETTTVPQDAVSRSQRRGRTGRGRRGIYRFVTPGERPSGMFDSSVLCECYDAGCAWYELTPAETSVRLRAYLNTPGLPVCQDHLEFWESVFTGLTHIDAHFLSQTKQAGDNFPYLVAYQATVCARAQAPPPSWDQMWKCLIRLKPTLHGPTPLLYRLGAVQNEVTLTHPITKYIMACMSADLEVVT

## CCCCc1cn(-c2ccc(NC(=O)Nc3ccccc3C)cc2)nn1 [Compound 20a, 1-(4-(4-butyl-1H-1,2,3-triazol-1-yl)phenyl)-3-o-tolylurea]
[1]
  Metabolic stability (Sability %): 99%
NS3 (DENV)
  pIC50: < 3.70
HIV (PBMC)
  pEC50: 4.52
DDX3 Helicase
  IC50: 0.3 µM
NS3 (HCV)
  pIC50: 4.77
DDX1
  pIC50: < 3.70
Water Solubility Assay; experimental aqueous solubility, read-out: LogS (converted)
  solubility: 0.0891 µM
Water Solubility Assay; room temperature, 24-36 h, read-out: Aq. Solub.
  solubility: 0.135 µg/mL
[2]
  CC50: 49.8 µM
[3]; read-out: IC50 [95% CI] (μM), HIV-1 strain 7404
  IC50: 0.22 µM
[3]; read-out: IC50 [95% CI] (μM), HIV-1 strain 7406
  IC50: 0.33 µM
[3]; read-out: IC50 [95% CI] (μM), HIV-1 strain 11808
  IC50: 0.23 µM
[3]; read-out: IC50 [95% CI] (μM), HIV-1 strain 11845
  IC50: 0.37 µM
[3]; read-out: IC50 [95% CI] (μM), HIV-1 strain 12227
  IC50: 0.94 µM
[3]; read-out: IC50 [95% CI] (μM), HIV-1 strain 12235
  IC50: 0.36 µM
[3]; resistant strain IC50 to wild type strain IC50 ratio, 7404 NRTIs
  Fold change, strain 7404: 0.2
[3]; resistant strain IC50 to wild type strain IC50 ratio, 7406 NRTIs
  Fold change, strain 7406: 0.3
[3]; resistant strain IC50 to wild type strain IC50 ratio, 11808 PIs
  Fold change, strain 11808: 0.2
[3]; resistant strain IC50 to wild type strain IC50 ratio, 11845 INIs
  Fold change, strain 11845: 0.3
[3]; resistant strain IC50 to wild type strain IC50 ratio, 12227 NNRTIs
  Fold change, strain 12227: 0.8
[3]; resistant strain IC50 to wild type strain IC50 ratio, 12235 NNRTIs
  Fold change, strain 12235: 0.3
[3]; viruses carrying resistance mutations
  activity against resistant HIV viruses, in words: retained full activity
ATPase DDX3
  pIC50: < 3.70
[4]; first cycle in MT-2 cells, additional round in TZM-bl cells
  pEC50: 5.96
[4]; strain 114, NL4-3 wild type, read-out: IC50 [95% CI] (μM), HIV-1 strain 114
  IC50: 1.11 µM
JEV strain (NJ2008)
  pEC50: 4.70
[5]; DENV CC50, Huh7 cells, DENV experiment
  CC50 at 48 h: > 787000 nM
[5]; WNV CC50, Huh7 cells, WNV experiment
  CC50 at 48 h: > 500000 nM
[6]
  pEC50: 5.42
